Test results published in publication PMC7862523 (Clinical Pharmacokinetics, 2020).

How the values were obtained:
[1] = Association between model-derived AUC and pharmacodynamic biomarkers; format: in vivo, human
[2] = Population pharmacokinetic model
[3] = final population PK model, combined dataset

correlation between AUC and occurrence of lipodystrophy ([1]; any point during follow-up, W = 1687, p = 0.97): no apparent correlation | CL higher in CYP3A5 expressors compared with non-expressors ([2]; combined dataset): 19% | CL lower in female compared with male individuals ([2]; combined dataset): 21% | σadditive (SD), residual variability ([2]; final model): 0.641 | σexponential (SD), residual variability ([2]; final model): 0.281 | SLCO3A1 G > T on V (covariate scale factor) ([2]; final model, rs8027174): 0.81 | ωCL (SD), inter-individual variability of CL [2, 3]: 0.22 | ωV (SD), inter-individual variability of V [2, 3]: 0.33 | ωka (SD), inter-individual variability of ka [2, 3]: 0.60 | ka (absorption rate constant), estimate ([2]; final population PK model, combined dataset, typical value): 0.68 h⁻¹
Structure (SMILES): CC(C)CN(C[C@@H](O)[C@H](Cc1ccccc1)NC(=O)O[C@H]1CO[C@H]2OCC[C@H]21)S(=O)(=O)c1ccc(N)cc1 [Darunavir]
correlation between AUC and CD4 lymphocyte count ([1]; Spearman, p = 0.3): no apparent correlation | correlation between AUC and occurrence of CNS adverse events ([1]; any point during follow-up, W = 1613.5, p = 0.42): no apparent correlation | correlation between AUC and viral load ([1]; viral load > 40 or < 40 copies/mL, Wilcoxon W = 582, p = 0.45): no apparent correlation
